In paper PMC11040104, “The two C. elegans class VI myosins, SPE-15/HUM-3 and HUM-8, share similar motor properties, but have distinct developmental and tissue expression patterns” (Frontiers in Physiology, 2024):
Each block holds one compound with its values, some of them ahead of it.

Assays:
[1] = target: rabbit muscle actin, pyrene-labelled (F-actin) (rabbit) (UniProt P68135)
[2] = target: rabbit muscle actin, pyrene-labelled (F-actin) (rabbit) (UniProt P68135); experiment: other fluorescence titration; stopped-flow; amplitude of ATP-induced dissociation of pyrene-actin.myosin against myosin concentration, quadratic fit; 20°C, 20 mM MOPS pH 7.0, 25 mM KCl, 5 mM MgCl2, 1 mM DTT
[3] = target: T1, HUM-8 (Caenorhabditis elegans, UniProt U4PBY2); experiment: stopped-flow pyrene-actin, ADP/ATP competition; type: binding; conditions: bound to pyrene-labelled rabbit F-actin; competition with ATP; pH 7.0, 20 °C, 25 mM KCl, 5 mM MgCl2, probably misprint for µM; read-out: affinity for ADP
T1 construct: motor-neck domain residues 61-904, N-terminal 6xHis, C-terminal GSG linker + RGSIDTWV tag kept; co-expressed with human calmodulin in ExpiSf9; with Actin, alpha skeletal muscle (rabbit, Oryctolagus cuniculus); Calmodulin (human light chain, co-expressed)
T1 sequence (U4PBY2 61-904): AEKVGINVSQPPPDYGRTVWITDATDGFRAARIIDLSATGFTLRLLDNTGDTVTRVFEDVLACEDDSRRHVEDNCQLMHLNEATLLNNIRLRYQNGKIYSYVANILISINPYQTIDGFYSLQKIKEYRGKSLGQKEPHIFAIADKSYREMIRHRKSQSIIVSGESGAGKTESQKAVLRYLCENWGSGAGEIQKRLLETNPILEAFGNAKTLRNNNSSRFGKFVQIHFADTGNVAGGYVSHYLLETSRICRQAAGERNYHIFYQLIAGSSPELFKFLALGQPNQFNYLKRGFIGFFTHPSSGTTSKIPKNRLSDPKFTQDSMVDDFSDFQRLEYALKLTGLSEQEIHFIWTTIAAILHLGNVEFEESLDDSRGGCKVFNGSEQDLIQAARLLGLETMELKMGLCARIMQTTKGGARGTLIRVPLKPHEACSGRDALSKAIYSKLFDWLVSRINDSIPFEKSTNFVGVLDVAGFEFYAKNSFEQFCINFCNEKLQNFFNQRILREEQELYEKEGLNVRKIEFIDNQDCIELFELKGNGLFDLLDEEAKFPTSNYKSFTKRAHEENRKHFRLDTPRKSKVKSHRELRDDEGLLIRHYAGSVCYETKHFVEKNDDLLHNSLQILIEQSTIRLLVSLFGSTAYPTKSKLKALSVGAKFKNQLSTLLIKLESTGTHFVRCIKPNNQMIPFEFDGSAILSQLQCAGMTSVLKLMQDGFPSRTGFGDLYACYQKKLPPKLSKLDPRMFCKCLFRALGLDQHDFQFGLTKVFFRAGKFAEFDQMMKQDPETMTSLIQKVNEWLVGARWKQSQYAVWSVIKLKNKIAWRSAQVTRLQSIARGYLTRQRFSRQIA

[4] = target: T2, human MYO6 (Homo sapiens, UniProt Q9UM54); experiment: stopped-flow pyrene-actin, ADP/ATP competition; type: binding; conditions: bound to pyrene-labelled rabbit F-actin; competition with ATP; pH 7.0, 20 °C, 25 mM KCl, 5 mM MgCl2, probably misprint for µM; read-out: affinity for ADP
T2 construct: with Actin, alpha skeletal muscle (rabbit, Oryctolagus cuniculus); Calmodulin (light chain)

[5] = target: T3, SPE-15/HUM-3 (Caenorhabditis elegans, UniProt Q9TZI9); experiment: stopped-flow pyrene-actin, ADP/ATP competition; type: binding; conditions: bound to pyrene-labelled rabbit F-actin; competition with ATP; pH 7.0, 20 °C, 25 mM KCl, 5 mM MgCl2, probably misprint for µM; read-out: affinity for ADP
T3 construct: motor-neck domain residues 1-841, N-terminal 6xHis, C-terminal GSG linker + RGSIDTWV tag kept; co-expressed with human calmodulin in ExpiSf9; with Actin, alpha skeletal muscle (rabbit, Oryctolagus cuniculus); Calmodulin (human light chain, co-expressed)

[6] = target: T2, human MYO6; experiment: stopped-flow, ATP-induced dissociation of pyrene-actin.myosin; type: binding; conditions: bound to pyrene-labelled rabbit F-actin, pH 7.0, 20 °C, 25 mM KCl, 5 mM MgCl2, not an affinity
[7] = target: T1, HUM-8; experiment: as above; type: binding; conditions: bound to pyrene-labelled rabbit F-actin, pH 7.0, 20 °C, 25 mM KCl, 5 mM MgCl2, not an affinity
[8] = target: T3, SPE-15/HUM-3; experiment: as above; type: binding; conditions: bound to pyrene-labelled rabbit F-actin, pH 7.0, 20 °C, 25 mM KCl, 5 mM MgCl2, not an affinity

Chain of human MYO6 motor domain (Q9UM54 whole entry, the tested form may be a part): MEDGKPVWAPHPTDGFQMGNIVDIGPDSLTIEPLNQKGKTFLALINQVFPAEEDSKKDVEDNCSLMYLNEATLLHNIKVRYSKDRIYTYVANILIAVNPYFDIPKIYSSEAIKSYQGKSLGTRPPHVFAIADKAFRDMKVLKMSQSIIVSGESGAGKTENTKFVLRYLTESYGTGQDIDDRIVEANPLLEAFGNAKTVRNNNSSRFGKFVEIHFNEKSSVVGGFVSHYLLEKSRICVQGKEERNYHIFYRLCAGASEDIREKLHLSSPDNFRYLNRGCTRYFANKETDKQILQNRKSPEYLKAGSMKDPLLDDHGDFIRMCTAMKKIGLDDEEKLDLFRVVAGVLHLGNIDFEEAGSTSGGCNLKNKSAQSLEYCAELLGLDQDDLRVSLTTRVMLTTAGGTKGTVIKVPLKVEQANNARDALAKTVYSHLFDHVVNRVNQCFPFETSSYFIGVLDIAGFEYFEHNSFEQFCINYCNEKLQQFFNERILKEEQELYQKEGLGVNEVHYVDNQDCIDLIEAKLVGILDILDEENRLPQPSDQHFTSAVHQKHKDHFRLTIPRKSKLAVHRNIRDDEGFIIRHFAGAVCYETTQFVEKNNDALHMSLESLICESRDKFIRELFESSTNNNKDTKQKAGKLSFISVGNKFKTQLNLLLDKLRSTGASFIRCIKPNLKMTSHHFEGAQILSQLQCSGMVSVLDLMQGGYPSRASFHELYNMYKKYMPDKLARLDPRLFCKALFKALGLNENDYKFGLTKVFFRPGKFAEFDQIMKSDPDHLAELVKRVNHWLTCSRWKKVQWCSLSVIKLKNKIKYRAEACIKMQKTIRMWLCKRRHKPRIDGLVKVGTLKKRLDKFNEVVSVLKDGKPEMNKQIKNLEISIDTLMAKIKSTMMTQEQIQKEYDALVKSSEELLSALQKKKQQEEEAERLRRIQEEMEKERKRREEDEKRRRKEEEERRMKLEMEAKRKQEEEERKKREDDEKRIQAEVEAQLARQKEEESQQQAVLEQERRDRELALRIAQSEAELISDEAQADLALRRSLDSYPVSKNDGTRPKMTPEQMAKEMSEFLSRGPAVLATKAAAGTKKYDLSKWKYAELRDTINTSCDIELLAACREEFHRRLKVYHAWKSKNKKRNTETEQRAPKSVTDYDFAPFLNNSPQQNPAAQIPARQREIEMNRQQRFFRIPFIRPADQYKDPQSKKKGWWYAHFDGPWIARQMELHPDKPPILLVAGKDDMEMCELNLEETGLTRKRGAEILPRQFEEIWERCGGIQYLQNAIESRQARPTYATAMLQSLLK
T3 sequence (Q9TZI9 1-841): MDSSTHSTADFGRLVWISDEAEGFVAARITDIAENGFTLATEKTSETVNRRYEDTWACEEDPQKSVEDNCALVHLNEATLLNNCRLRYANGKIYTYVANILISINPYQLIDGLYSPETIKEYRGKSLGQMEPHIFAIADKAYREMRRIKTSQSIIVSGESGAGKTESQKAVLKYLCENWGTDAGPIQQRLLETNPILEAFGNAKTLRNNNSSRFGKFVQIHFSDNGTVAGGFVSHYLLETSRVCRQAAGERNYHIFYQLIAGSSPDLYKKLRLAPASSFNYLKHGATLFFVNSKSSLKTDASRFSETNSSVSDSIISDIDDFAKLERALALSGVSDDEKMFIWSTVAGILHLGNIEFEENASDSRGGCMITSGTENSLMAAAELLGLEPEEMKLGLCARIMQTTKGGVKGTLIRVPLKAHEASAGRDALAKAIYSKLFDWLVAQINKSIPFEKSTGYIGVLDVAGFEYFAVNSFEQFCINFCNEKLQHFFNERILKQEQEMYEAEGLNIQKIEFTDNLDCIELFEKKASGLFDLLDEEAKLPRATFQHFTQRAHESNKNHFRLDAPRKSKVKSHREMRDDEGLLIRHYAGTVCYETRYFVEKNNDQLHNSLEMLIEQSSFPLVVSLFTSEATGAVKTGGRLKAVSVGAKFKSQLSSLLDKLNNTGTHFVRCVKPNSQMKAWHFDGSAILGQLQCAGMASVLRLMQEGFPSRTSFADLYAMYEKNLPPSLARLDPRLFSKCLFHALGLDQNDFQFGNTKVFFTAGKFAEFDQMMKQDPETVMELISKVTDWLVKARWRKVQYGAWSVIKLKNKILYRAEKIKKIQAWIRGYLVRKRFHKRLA
T2 sequence (Q9UM54 1-840 limits assumed): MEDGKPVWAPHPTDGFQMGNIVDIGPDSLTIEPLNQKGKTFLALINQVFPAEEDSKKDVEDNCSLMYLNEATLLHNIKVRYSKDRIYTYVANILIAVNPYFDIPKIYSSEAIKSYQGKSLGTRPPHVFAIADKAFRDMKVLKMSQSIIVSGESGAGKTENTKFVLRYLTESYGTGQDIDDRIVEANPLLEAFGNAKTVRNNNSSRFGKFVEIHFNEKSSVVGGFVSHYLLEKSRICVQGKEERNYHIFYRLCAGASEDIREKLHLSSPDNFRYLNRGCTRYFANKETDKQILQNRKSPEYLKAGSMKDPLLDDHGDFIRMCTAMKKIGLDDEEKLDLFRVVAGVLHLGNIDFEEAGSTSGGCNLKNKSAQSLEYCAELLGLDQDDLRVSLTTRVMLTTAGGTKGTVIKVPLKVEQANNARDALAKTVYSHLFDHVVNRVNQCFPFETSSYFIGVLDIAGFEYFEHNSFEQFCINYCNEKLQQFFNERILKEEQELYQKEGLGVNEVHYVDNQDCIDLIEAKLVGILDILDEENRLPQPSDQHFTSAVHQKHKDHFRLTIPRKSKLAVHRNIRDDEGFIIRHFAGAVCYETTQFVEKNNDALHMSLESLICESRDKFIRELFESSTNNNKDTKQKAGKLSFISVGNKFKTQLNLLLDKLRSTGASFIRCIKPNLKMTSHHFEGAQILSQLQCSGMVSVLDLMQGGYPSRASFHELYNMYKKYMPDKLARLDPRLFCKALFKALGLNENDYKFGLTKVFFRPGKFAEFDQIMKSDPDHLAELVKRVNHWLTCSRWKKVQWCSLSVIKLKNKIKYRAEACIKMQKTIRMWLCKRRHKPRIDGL

in vitro motility assay: gliding velocity of rhodamine-phalloidin labelled actin filaments on surface-immobilised myosin [1]: 55 nm/s
Kd [2]: 0.015 µM
Compound: human MYO6 motor domain (from UniProt Q9UM54 1-1294) (domain or fragment)

Kd [3]: 20000 ± 2000 µM
Kd [4]: 6000 ± 800 µM
Kd [5]: 18000 ± 4000 µM
Compound: Nc1ncnc2c1ncn2[C@@H]1O[C@H](COP(=O)(O)OP(=O)(O)O)[C@@H](O)[C@H]1O [ADP]

apparent second order rate constant for ATP binding [6]: 5000 ± 400 M⁻¹ s⁻¹
apparent second order rate constant for ATP binding [7]: 3000 ± 500 M⁻¹ s⁻¹
apparent second order rate constant for ATP binding [8]: 9000 ± 800 M⁻¹ s⁻¹
Compound: Nc1ncnc2c1ncn2[C@@H]1O[C@H](COP(=O)(O)OP(=O)(O)OP(=O)(O)O)[C@@H](O)[C@H]1O [ATP]
